Data taken from PubChem BioAssay (NCI).
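The compound was tested at five concentrations on cells cultured in 96-well plates, with a 48-hour exposure period. Abbreviation: GI50, concentration required for 50% inhibition of growth. TGI denotes the concentration required for complete inhibition of growth.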

Key:
Assay in all cases: NCI tumour cell line growth inhibition, 48 h
[1] = test system: DMS 114 small cell lung
[2] = test system: SNB-78 CNS
[3] = test system: M19-MEL melanoma
[4] = test system: DMS 273 small cell lung
[5] = test system: LXFL 529 NSCLC
[6] = test system: HOP-18 NSCLC
[7] = test system: P388/ADR leukemia
[8] = test system: P388 leukemia
[9] = test system: DLD-1 colon
[10] = test system: SN12K1 renal
[11] = test system: XF 498 CNS

Structure (SMILES)	TGI [1] [µM]	TGI [2] [µM]	TGI [3] [µM]	TGI [4] [µM]	TGI [5] [µM]	TGI [6] [µM]	TGI [7] [µM]	TGI [8] [µM]	TGI [9] [µM]	TGI [10] [µM]	TGI [11] [µM]	GI50 [6] [µM]
CS/C(=N\C(=S)Nc1ccccc1)Nc1ccccc1	52.6	> 100	81									
COc1ccc(C2C(=O)C(Cl)N2Nc2nc(C)cc(=O)[nH]2)cc1OC (stereo not drawn)		> 100	> 100	84.3	> 100	53.7						
NC(=O)NO		> 2500	> 2450	1360	> 2320	1940	502	548	> 2500	1890	1850	1130
COc1ccccc1N1C(Cl)C(=O)C1c1c[nH]c2ccccc12 (stereo not drawn)	> 100		> 100		> 100						> 100	
